The experiment concerns P. falciparum K1 (strain resistant to chloroquine and pyrimethamine), erythrocytic stages. Put plainly: Plasmodium falciparum in vitro assay, [3H] hypoxanthine incorporation. The format is cell-based. The conditions noted are these: Plasmodium falciparum, K1, P. falciparum strain K1; [3H] hypoxanthine incorporation; read-out: IC50 (nM) on K1. Put shortly: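 K1 strain parasites grown in human red cells, 2.5% haematocrit, 0.3% parasitaemia, 37 °C, 4% CO2/3% O2; compounds in seven serial doubling dilutions.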

What is called IC50 is the midpoint of a concentration-inhibition curve.

Consider `COCCN(C)C(=O)[C@H](Cc1ccccc1)N(Cc1ccc(-c2ccncc2)cc1)C(=O)C=Cc1ccc(C(F)(F)F)cn1` [Example 102, (S)-N-{1-[(2-Methoxy-ethyl)-methyl-carbamoyl]-2-phenyl-ethyl}-N-(4-pyridin-4-yl-benzyl)-3-(5-trifluoromethyl-pyridin-2-yl)-acrylamide], for which the IC50 is 6 nM.
Take `COCCN(C)C(=O)[C@H](Cc1ccccc1)N(Cc1ccc(N2CCN(C(C)=O)CC2)cc1)C(=O)C=Cc1ccn(C)n1` [Example 103, (S)-N-[4-(4-Acetyl-piperazin-1-yl)-benzyl]-N-{1-[(2-methoxy-ethyl)-methyl-carbamoyl]-2-phenyl-ethyl}-3-(1-methyl-1H-pyrazol-3-yl)-acrylamide]: the IC50 amounted to 438 nM.
Then `COCCN(C)C(=O)[C@H](Cc1ccccc1)N(Cc1ccc(N2CCN(C(C)=O)CC2)cc1)C(=O)C=Cc1cc(C)nn1C` [Example 104, (S)-N-[4-(4-Acetyl-piperazin-1-yl)-benzyl]-3-(2,5-dimethyl-2H-pyrazol-3-yl)-N-{1-[(2-methoxy-ethyl)-methyl-carbamoyl]-2-phenyl-ethyl}-acrylamide], with 45 nM.
Then `COCCN(C)C(=O)[C@H](Cc1ccccc1)N(Cc1ccc(N2CCN(C(C)=O)CC2)cc1)C(=O)C=Cc1c(C)nn(C)c1C` [Example 105, (S)-N-[4-(4-Acetyl-piperazin-1-yl)-benzyl]-N-{1-[(2-methoxy-ethyl)-methyl-carbamoyl]-2-phenyl-ethyl}-3-(1,3,5-trimethyl-1H-pyrazol-4-yl)-acrylamide], with 44 nM.
Then `COCCN(C)C(=O)[C@H](Cc1ccccc1)N(Cc1ccc(N2CCN(C(C)=O)CC2)cc1)C(=O)C=Cc1cnc(C)n1C` [Example 106, (S)-N-[4-(4-Acetyl-piperazin-1-yl)-benzyl]-3-(2,3-dimethyl-3H-imidazol-4-yl)-N-{1-[(2-methoxy-ethyl)-methyl-carbamoyl]-2-phenyl-ethyl}-acrylamide], with 470 nM; and `COCCN(C)C(=O)[C@H](Cc1ccccc1)N(Cc1ccc(N2CCN(C(C)=O)CC2)cc1)C(=O)C=Cc1sc(C)nc1C` [Example 107, (S)-N-[4-(4-Acetyl-piperazin-1-yl)-benzyl]-3-(2,4-dimethyl-thiazol-5-yl)-N-{1-[(2-methoxy-ethyl)-methyl-carbamoyl]-2-phenyl-ethyl}-acrylamide], with 70 nM; and `COCCN(C)C(=O)[C@H](Cc1ccccc1)N(Cc1ccc(N2CCN(C(C)=O)CC2)cc1)C(=O)C=Cc1csc(C)n1` [Example 108, (S)-N-[4-(4-Acetyl-piperazin-1-yl)-benzyl]-N-{1-[(2-methoxy-ethyl)-methyl-carbamoyl]-2-phenyl-ethyl}-3-(2-methyl-thiazol-4-yl)-acrylamide], with 225 nM.
In the case of `COCCN(C)C(=O)[C@H](Cc1ccccc1)N(Cc1ccc(N2CCN(C(C)=O)CC2)cc1)C(=O)C=Cc1c(C)noc1C` [Example 109, (S)-N-[4-(4-Acetyl-piperazin-1-yl)-benzyl]-3-(3,5-dimethyl-isoxazol-4-yl)-N-{1-[(2-methoxy-ethyl)-methyl-carbamoyl]-2-phenyl-ethyl}-acrylamide], the IC50 was found to be 100 nM.
Then `COCCN(C)C(=O)[C@H](Cc1ccccc1)N(Cc1ccc(N2CCN(C(C)=O)CC2)cc1)C(=O)C=Cc1nc(C)oc1C` [Example 110, (S)-N-[4-(4-Acetyl-piperazin-1-yl)-benzyl]-3-(2,5-dimethyl-oxazol-4-yl)-N-{1-[(2-methoxy-ethyl)-methyl-carbamoyl]-2-phenyl-ethyl}-acrylamide], with 324 nM; and `COCCN(C)C(=O)[C@H](Cc1ccccc1)N(Cc1ccc(N2CCN(C(C)=O)CC2)cc1)C(=O)C=Cc1ccc(OC)nn1` [Example 111, (S)-N-[4-(4-Acetyl-piperazin-1-yl)-benzyl]-N-{1-[(2-methoxy-ethyl)-methyl-carbamoyl]-2-phenyl-ethyl}-3-(6-methoxy-pyridazin-3-yl)-acrylamide], with 214 nM; and `COCCN(C)C(=O)[C@H](Cc1ccccc1)N(Cc1ccc(N2CCN(C(C)=O)CC2)cc1)C(=O)C=Cc1ccc(C)nc1` [Example 112, (S)-N-[4-(4-Acetyl-piperazin-1-yl)-benzyl]-N-{1-[(2-methoxy-ethyl)-methyl-carbamoyl]-2-phenyl-ethyl}-3-(6-methyl-pyridin-3-yl)-acrylamide], with 153 nM.
In the case of `COCCN(C)C(=O)[C@H](Cc1ccccc1)N(Cc1ccc(N2CCN(C(C)=O)CC2)cc1)C(=O)C=Cc1ccc(Cl)nc1` [Example 113, (S)-N-[4-(4-Acetyl-piperazin-1-yl)-benzyl]-3-(6-chloro-pyridin-3-yl)-N-{1-[(2-methoxy-ethyl)-methyl-carbamoyl]-2-phenyl-ethyl}-acrylamide] it was 84 nM.
`COCCN(C)C(=O)[C@H](Cc1ccccc1)N(Cc1ccc(N2CCN(C(C)=O)CC2)cc1)C(=O)C=Cc1ccc(C)cn1` [Example 114, (S)-N-[4-(4-Acetyl-piperazin-1-yl)-benzyl]-N-{1-[(2-methoxy-ethyl)-methyl-carbamoyl]-2-phenyl-ethyl}-3-(5-methyl-pyridin-2-yl)-acrylamide]: the IC50 came to 107 nM.
Then `COCCN(C)C(=O)[C@H](Cc1ccccc1)N(Cc1ccc(N2CCN(C(C)=O)CC2)cc1)C(=O)C=Cc1ccc(OC)nc1` [Example 115, (S)-N-[4-(4-Acetyl-piperazin-1-yl)-benzyl]-N-{1-[(2-methoxy-ethyl)-methyl-carbamoyl]-2-phenyl-ethyl}-3-(6-methoxy-pyridin-3-yl)-acrylamide], with 32 nM.
In the case of `COCCN(C)C(=O)[C@H](Cc1ccccc1)N(Cc1ccc(N2CCN(C(C)=O)CC2)cc1)C(=O)C=Cc1ccc(C(F)(F)F)cn1` [Example 116, (S)-N-[4-(4-Acetyl-piperazin-1-yl)-benzyl]-N-{1-[(2-methoxy-ethyl)-methyl-carbamoyl]-2-phenyl-ethyl}-3-(5-trifluoromethyl-pyridin-2-yl)-acrylamide] it was less than 8 nM; in that of `COCCN(C)C(=O)[C@H](Cc1ccccc1)N(Cc1ccc(N2CCN(C(C)=O)CC2)cc1)C(=O)C=Cc1cnn(C)c1C` [Example 117, (S)-N-[4-(4-Acetyl-piperazin-1-yl)-benzyl]-3-(1,5-dimethyl-1H-pyrazol-4-yl)-N-{1-[(2-methoxy-ethyl)-methyl-carbamoyl]-2-phenyl-ethyl}-acrylamide], 117 nM; in that of `COCCN(C)C(=O)[C@H](Cc1ccccc1)N(Cc1ccc(N2CCN(C(C)=O)CC2)cc1)C(=O)C=Cc1cnc(OC)nc1` [Example 118, (S)-N-[4-(4-Acetyl-piperazin-1-yl)-benzyl]-N-{1-[(2-methoxy-ethyl)-methyl-carbamoyl]-2-phenyl-ethyl}-3-(2-methoxy-pyrimidin-5-yl)-acrylamide], 104 nM.
In the case of `COCCN(C)C(=O)[C@H](Cc1ccccc1)N(Cc1ccc(-c2cncnc2)cc1)C(=O)C=Cc1ccn(C)n1` [Example 119, (S)-N-{1-[(2-Methoxy-ethyl)-methyl-carbamoyl]-2-phenyl-ethyl}-3-(1-methyl-1H-pyrazol-3-yl)-N-(4-pyrimidin-5-yl-benzyl)-acrylamide] it was 81 nM.
Regarding `COCCN(C)C(=O)[C@H](Cc1ccccc1)N(Cc1ccc(-c2cncnc2)cc1)C(=O)C=Cc1cnc(C)n1C` [Example 120, (S)-3-(2,3-Dimethyl-3H-imidazol-4-yl)-N-{1-[(2-methoxy-ethyl)-methyl-carbamoyl]-2-phenyl-ethyl}-N-(4-pyrimidin-5-yl-benzyl)-acrylamide], the IC50 amounted to 285 nM.

Values taken from patent US20110224210A1, “NOVEL BIS-AMIDES AS ANTI-MALARIAL AGENTS” (priority 2008, published 2011).
